Literature values in paper PMC11328599, “Crystal structure of dihydroneopterin aldolase from Mycobacterium tuberculosis associated with 8-mercaptoguanine, and development of novel S8-functionalized analogues as inhibitors: Synthesis, enzyme inhibition, in vitro toxicity and antitubercular activity” (Journal of Enzyme Inhibition and Medicinal Chemistry, 2024).

Biological target: T1, MtFolB (Mycobacterium tuberculosis, UniProt P9WNC5)
T1 construct: made in house
Parameters: method as in PMID 33752554
Conditions: previously reported; cited from earlier work

T1 sequence (P9WNC5 whole entry): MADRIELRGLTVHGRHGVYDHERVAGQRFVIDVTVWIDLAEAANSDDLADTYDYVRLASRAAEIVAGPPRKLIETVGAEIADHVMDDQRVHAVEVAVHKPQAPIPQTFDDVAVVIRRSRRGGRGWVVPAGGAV

SMILES: Nc1nc2nc(S)[nH]c2c(=O)[nH]1 [Compound 8-MG, 8-mercaptoguanine]
- Inhibition mode: non-competitive
